This note sets out measurements from patent US20260355166A1, “2-SUBSTITUTED PIPERIDINE DERIVATIVES, PREPARATION METHODS AND MEDICINAL USES THEREOF” (JIANGSU HANSOH PHARMACEUTICAL GROUP CO., LTD., priority 2022, published 2026).

Data set [1] is described as follows: Pharmacokinetic Studies in Rats. The format is in vivo, brown Norway rats. The conditions noted are these: plasma, rat. As to the method:
Three-month-old brown Norway rats were administered the Example compound intravenously (0.5 mg/kg dose, formulation: 10% 1,2-Propanediol+25% (20% solutol HS 15 in water)+65% phosphate buffered saline at 0.1 mg/mL) and via oral gavage at 2 mg/kg dose as a clear solution (0.5% MC+0.5% Tween 80 in water at 1 mg/mL). Plasma was collected from rats per time point at 0.25, 0.5, 1, 6, and 24 h after administration. The concentrations of the test article were measured in plasma by HPLC-MS/MS, two individual plasma samples at each time point. Chromatographic separation was carried out on Waters BEH C18 Column (2.1×50 mm, 1.7 μm) column (MAC-MOD Analytical, Chadds Ford, PA), using a gradient elution method with water and acetonitrile, both containing 0.025% formic acid-1 mM NH4OAc. Mass spectrometric measurements in positive electrospray ionization were directed at quantifying the mass transition with [M+H]^+ as the precursor ion on API6500, triple quadruple mass spectrometer (Sciex, Framingham, MA). The relevant pharmacokinetic parameters were estimated using noncompartmental methods using WinNonlin (Enterprise, version 8.2).

Data set [2] has as its target T1, human Factor B (Homo sapiens, UniProt P00751).
T1 construct: Recombinant human Factor B catalytic domain (a.a. 470-764, C-terminal his-tagged, produced in-house); made in house
Put plainly: Target Residence Time of Factor B Inhibitors Determined by Surface Plasmon Resonance (SPR). The conditions noted are these: for pKd: immobilized recombinant human Factor B catalytic domain, room temperature; for t1/2 (binding half-life): t1/2=ln 2/kd; for residence time: tR=1/kd. The data set is classed as binding. The text has this: • 1. Recombinant human Factor B catalytic domain (a. a. 470-764, C-terminal his-tagged, produced in-house) • 2. PBS-P+ Buffer 10× (Cytiva, CAT #28995084) • 3. Series S Sensor Chip NTA (Cytiva, CAT #BR100532) • 4. Amine Coupling Kit (Cytiva, CAT #BR100050) • 5. DMSO (Millipore Sigma, CAT #34869-1L) • 6. Greiner 96 well plates, polypropylene (Sigma-Aldrich, CAT #M7310-100EA) • 7. Microplate Foil, 96-well (Cytiva, CAT #28975816) • 8. Biacore 8k (Cytiva)
Biacore 8k instrument was primed using 1×PBS-P+ buffer before docking a Cytiva NTA chip. Recombinant human Factor B catalytic domain were immobilized on a NTA chip to a level of about 5000 resonance units (RU) using 1×PBS-P+ buffer [[…] phosphate buffer with 2.7 mM KCl, 137 mM NaCl, and 0.05% (v/v) Tween-20]. The protein ligand was further crosslinked to sensorchip surface by amine coupling kit. Immobilization and binding experiment were performed at room temperature.
After changing buffer to 1×PBS-P+ buffer with 2% (v/v) DMSO, a pre-run was performed for a period of at least 30 min at a flow rate of 30 μl/min to obtain a stable surface. The kinetic constants of the compounds were determined by single-cycle kinetics with six consecutive injections (or multi-cycle kinetics with eight consecutive injections) with an increasing compound concentration in ranges of 0.8-200 nM, 12.5-400 nM, 4.1-1,000 nM or 41-10,000 nM depending on the potency. Single-cycle kinetics experiments were performed with an association time of 60 s per concentration and a dissociation time of 300 s (or a dissociation time of 120 s for multi-cycle kinetics experiments). A flow rate of 30 μl/min was used. A blank run with the same conditions was performed before the compound was injected.
The SPR sensorgrams were analyzed with Biacore Insight Evaluation Software by using a method of double referencing. The resulting curve was fitted with a 1:1 binding model. The kinetic constants (ka, kd, KD) of replicates were averaged. Residence time (tR) was calculated from the dissociation constant kd with the formula tR=1/kd. Binding half-life (t1/2) was calculated from the dissociation constant kd with the formula t1/2=ln 2/kd

For data set [3], the system named is rabbit reticulocyte hemolysis. Put plainly: Inhibition of AP Dependent Hemolysis (rabbit cells in human serum). The data set is classed as cell-based, human serum; rabbit erythrocytes. The conditions noted are these: Oryctolagus cuniculus, GVB buffer with MgCl2 and EGTA, 37 °C, OD405. As to the method: To quantify the inhibitory effects of compounds on the hemolytic activity of the alternative complement pathway, the AP hemolytic assay was employed. Test concentration of the compounds started at 100 μM and were diluted 3-fold in DMSO to produce 8-11 concentration points, with each concentration tested in technical triplicates. Human serum was added to rabbit reticulocytes in a solution of GVB buffer with MgCl2 and EGTA. After a period of incubation at 37 °C, spontaneous lysis of rabbit erythrocytes due to serum AP complement activity was quantified using OD405 absorbance, measured using the i3x plate reader.

For data set [4], the target named is T1, human Factor B. Description: Factor B Binding Assay by TR-FRET. The settings on record: recombinant human Factor B catalytic domain 10 nM, 100 nM tracer, 1 h. As to the method: • 1. Recombinant human Factor B catalytic domain (a.a. 470-764, C-terminal his-tagged, produced in-house) • 2. 5× Kinase Buffer A (Thermo Fisher, CAT #PV3189) • 3. LANCE Eu-W1024 Anti-6×His Antibody (PerkinElmer, CAT #AD0401) • 4. Probe (TRFRET_tool 2, reported in WO 2015/009616)
[drawing 252] • 5. DMSO (Thermo Fisher Scientific) • 6. Compounds-10 mM stock in DMSO • 7. Victor Nivo multimode plate reader (PerkinElmer) • 8. OptiPlate-384, white opaque 384-well microplate (PerkinElmer, CAT #6007290)
Factor B binding affinity of each compound tested was determined using a time-resolved fluorescence resonance energy transfer (TR-FRET) technology. 10 nM recombinant his-tagged Factor B catalytic domain, varying concentrations of inhibitors, 4 nM LANCE Eu-W1024 Anti-6×His Antibody and 100 nM TRFRET_tool2 tracer was incubated in 1× Kinase Buffer A for 1 h. Measurement was performed in a reaction volume of 15 μL by adding 5 μL of the test compound, 5 μL of Factor B/antibody mixture and 5 μL of tracer into white opaque 384-well assay plates. The TR-FRET signal was read on a plate reader with an excitation wavelength of 340 nm and detection wavelengths of 615 and 665 nm. Binding affinity was determined for each compound by measuring TR-FRET signal at various concentrations of compound and plotting the relative fluorescence Emission Ratio (665 nm/615 nm) against the inhibitor concentration to estimate the IC50 from [Compound] vs Emission Ratio using the four parameters dose-response inhibition curve with a variable slope model in GraphPad Prism.
The binding affinity to recombinant Factor B catalytic domain of the compounds of the present invention was determined by the above assay, and IC50 values (nM) are shown in the following table.
(In general: Time-resolved FRET reads energy transfer from a long-lived donor to a nearby acceptor.)

The test system of data set [5] is MAC (Membrane Attack Complex) formation. Description: Inhibition of Human MAC Deposition (AP deposition assay, LPS activation, ELISA of C5b-9). The format is biochemical. The conditions noted are these: human serum, LPS coated plates, GVB buffer with MgCl2 and EGTA, C5b-9 detection. As for the experimental part:
To quantify the inhibitory effects of compounds on complement protein deposition following LPS activation of the alternative complement pathway, the AP deposition assay was employed. Test concentration of the compounds started at 11.1 μM or 3.70 µM and were diluted 3-fold in DMSO to produce 8 concentration points, with each concentration tested in technical triplicates. Human serum was combined with test compounds in GVB buffer containing 5 mM MgCl2 10 mM EGTA, and was added to LPS coated black Maxisorp plates. After a period of incubation, the plate was inverted, and ELISA detection of complement proteins bound to LPS was performed. A primary antibody that detected human C5b-9 was used, followed by a compatible HRP conjugated secondary antibody. Peroxidase activity was detected using the Quantablu Fluorogenic Peroxidase substrate kit and fluorescence was measured at 340 nm/435 nm using the i3x plate reader to determine the quantity of alternative pathway complement protein deposition.
(In general: ELISA stands for enzyme-linked immunosorbent assay.)

Molecules are shown by their SMILES. pIC50, pKd: −log10 of the molar value.

T1 sequence (P00751 470-764): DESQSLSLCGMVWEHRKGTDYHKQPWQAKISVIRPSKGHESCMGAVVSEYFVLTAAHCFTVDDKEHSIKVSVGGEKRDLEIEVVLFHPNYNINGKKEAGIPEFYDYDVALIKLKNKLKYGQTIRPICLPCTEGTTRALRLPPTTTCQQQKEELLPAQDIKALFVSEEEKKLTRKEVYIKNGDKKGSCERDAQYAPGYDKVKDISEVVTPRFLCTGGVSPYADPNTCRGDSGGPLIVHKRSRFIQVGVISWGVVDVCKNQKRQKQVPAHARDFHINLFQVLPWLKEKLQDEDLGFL

As a reminder, the bioavailability is the share of a dose that reaches the circulation, judged against a reference dose that is usually intravenous. By pKd is commonly meant the negative decadic logarithm of the Kd, by convention in mol/L. In general, residence time refers to how long the partners stay bound on average. By pIC50 is commonly meant −log10 of the IC50, conventionally taken in molar units. `COc1cc(C)c2[nH]ccc2c1CN1CCC2(CC(F)(F)C2)CC12CCc1cc(C(=O)O)ccc12` (single isomer, unassigned) [Example 1 isomer 1, 3,3-difluoro-1′-((5-methoxy-7-methyl-1H-indol-4-yl)methyl)-2″,3″-dihydrodispiro[cyclobutane-1,4′-piperidine-2′,1″-indene]-5″-carboxylic acid] registered a bioavailability in data set [1] (2 mg/kg, 0.5 mpk IV and 2 mpk PO) of 56%. In data set [1] (0.5 mg/kg IV, read-out: 0.5 MPK IV arm CL), the clearance worked out at 1.3 mL/min/kg. Also, in data set [1] (2 mg/kg PO, read-out: T½ (h) - 2 MPK PO (converted)), the half-life is 8.5 h. The AUC(0-t) in data set [1] (0.5 mpk IV and 2 mpk PO (arm not printed in this column head), read-out: Plasma AUC0-last) turned out to be 25.4 µM·h. Moreover, on human Factor B [2], the pKd is 9.05, the “t1/2 (binding half-life)” value was 11.8 min and the residence time was 16.9 min. The compound also gave a pIC50 in data set [3] of 6.66. Moreover, the pIC50 at human Factor B [4] was 8.98. This compound also gave a pIC50 in data set [5] of 6.83.
Take `COc1cc(C)c2[nH]ccc2c1CN1CCC2(CC(F)(F)C2)C[C@@]1(C)c1ccc(C(=O)O)cc1` (single isomer, unassigned) [Example 3 isomer 1]: on human Factor B [2], the pKd was 8.76, the “t1/2 (binding half-life)” value worked out at 12.6 min and the residence time was 18.2 min. For the same compound, the pIC50 in data set [3] is 6.60. Also, the negative-log IC50 (pIC50) on human Factor B [4] is 8.94. In data set [5], this compound showed a pIC50 of 6.71.
As for `COc1cc(C)c2[nH]ccc2c1CN1CCC2(CC(F)(F)C2)C[C@]12CCCc1cc(C(=O)O)ccc12` (single isomer, unassigned) [Example 2 isomer 1], on human Factor B [2], the pKd is 8.66, the “t1/2 (binding half-life)” value worked out at 13.6 min and the residence time was 19.6 min. For the same compound, the pIC50 in data set [3] is 6.55. Besides, at human Factor B [4], the pIC50 was 8.70. In data set [5], this compound gave a pIC50 of 6.89.
